Experimental data reported in patent US8796327B2, “Method for inhibiting production of cytokines of T helper cell type II and/or inhibiting production of chemokines using brazilin” (China Medical University, priority 2010, dated 2014).

Experiments:
IL-5 mRNA = test: Real-time PCR of IL-5 mRNA in EL-4 T lymphoma cells; type: cell-based, mouse; settings: for Expression level of IL-5 mRNA: PMA + cAMP stimulated EL-4 cells, corrected to HPRT
Method: (§1) Then, at a density of 5×10^5 counts/ml, the T lymphoma cells were bred in a six-well culture dish, and at the 0th minute, brazilin of different concentrations (0.3, 1, 3, 10, or 30 micromole (μM)) was added into the cell culture solution at an amount of 1 μl/ml-cell culture solution. Then, the cells were put into the incubator to be cultured therein. 30 minutes later, at an amount of 1 μl/ml-cell culture solution, 5 μg/ml PMA and cAMP at a 250 mmol concentration were added to the cell culture solution to stimulate the expression of IL-4 and IL-5 of the T lymphoma cells. During the process of cell culture, the trypan blue exclusion assay was employed to observe effect of the brazilin on the cell viability, results of which are shown in Table 1 and FIG. 1.
(§2) Expression of mRNA of IL-4, IL-5, GATA-3, c-maf, and T-bet were analyzed in a quantitative way through real-time polymerase chain reaction (PCR) by extracting RNA in the cells obtained in Experiment A (using an RNA purifying kit), converting the RNA into cDNA through reverse transcription, and using an ABI PRISM 7700 sequence detector (Applied Biosystems, Foster City, Calif., America) to analyze the gene expression of mRNA. The PCR was carried out under the following conditions: 50° C., 2 minutes; 95° C., 10 minutes; 60° C., 1 minute; then repeating this cycle forty times. A threshold cycle (or referred to as Ct) was used to represent the expression level of each gene, and an expression level of hypoxanthine-guanine phosphoribosy transferase (HPRT) genes of the endogenous control group was used for correction of the expression level of mRNA.

c-maf mRNA = test: Real-time PCR of c-maf mRNA in EL-4 T lymphoma cells; type: cell-based, mouse; settings: for Expression level of c-maf mRNA: PMA + cAMP stimulated EL-4 cells, corrected to HPRT
Method: as §1, §2

[1] = test system: macrophages, lymphocytes, eosinophils, and neutrophils in bronochial alveolar lavage fluid; test: Immunocyte counts in bronochial alveolar lavage fluid, mice with asthma (OVA); type: in vivo; settings: OVA-sensitized BALB/c mice; for Number of eosinophils (×10^4) / Number of lymphocytes (×10^4) / Number of macrophages (×10^4) / Number of neutrophils (×10^4): i.p. or i.t., bronochial alveolar lavage fluid
Method: (§3) In Example 2, mice with asthma were used to conduct in vivo experiments, and ovalbumin (OVA) was used as an allergen.
(§4) The mice were sensitized (or challenged) according to the steps shown in FIG. 9 (see Lee et al., Lentiviral-mediated GATA-3 RNAi decreases allergic airway inflammation and hyperresponsiveness. Molecular Therapy, 2008; 16:60-65, which is incorporated herein in its entirety by reference). First, 50 μg OVA (using 2 mg alumina (Alum, Alumlmuject, Pierce Chemical, Rockford, Ill., USA) as an adjuvant) was injected into six to eight-week-old BALB/c female mice (from National Laboratory Animal Center, Taiwan) by intraperitoneal injection (i.p.). At 0th, 14th, and 28th day, the mice were injected with OVA at the same dosage. Before the administration of OVA at the forty-first and the forty-second days, different dosages of brazilin (high dose: 430 μg/mice; low dose: 43 μg/mice) were administrated to the mice by intraperitoneal injection (i.p.) or intratracheal instillation (i.t.). During the fortieth to the forty-second days, 100 μg OVA was dissolved in 40 μl PBS, and was administrated to the mice by intranasal instillation (i.n.) (once everyday, for three days). At the forty-third day, airway hyperresponsiveness of the mice was observed. At the forty-sixth day, the mice were sacrificed and used to conduct the following Experiments E to G During the above procedure, it was observed if any toxicity response arises after the administration of brazilin to the mice. In this experiment, the mice administrated with OVA were used as a positive control, and the mice not administrated with OVA were used as a negative control.
In Experiment D, after 24 hours from the last administration of OVA into the noses of the mice, the mice were sacrificed, and the blood was collected from the orbital cavities of the mice. Then, a cannula was immediately inserted into the bronchi of the mice, and the lungs of the mice were washed with a 1 ml HBSS buffer solution containing no calcium and magnesium ions three times, and a bronochial alveolar lavage fluid is collected. The fluid was centrifuged at 4° C. and with a revolution speed of 400 g for 10 minutes. Cells obtained after the centrifugation were re-suspended in a 1 ml HBSS buffer solution, and the total cell number was counted with a hemocytometer.
Then, the cells were fixed on a glass sheet in a way of cytocentrifuged preparations, and the Liu's stain (see Lee et al., Lentiviral-mediated GATA-3 RNAi decreases allergic airway inflammation and hyperresponsiveness. Molecular Therapy. 2008; 16:60-65, which is incorporated herein in its entirety by reference) was carried out to calculate the number of various kinds of cells. The cell number was calculated by counting the number of macrophages, lymphocytes, eosinophils, and neutrophils in 300 cells respectively. The cells were categorized according to their standard morphology, and the invasion of inflammatory cells into the lungs was observed.

eotaxin = test: ELISA of eotaxin in bronochial alveolar lavage fluid, mice with asthma (OVA); type: in vivo, BALB/c mice; settings: for Eotaxin concentration (pico-gram/ml): i.p. or i.t., OVA-sensitized BALB/c mice
Method: as §3
as §4, with “At the forty-sixth day, the mice were sacrificed and used to conduct the following Experiments E to G During the above procedure, it was observed if any toxicity response arises after the administration of brazilin to the mice. In this experiment, the mice administrated with OVA were used as a positive control, and the mice not administrated with OVA were used as a negative control.” left out
In Experiment D, after 24 hours from the last administration of OVA into the noses of the mice, the mice were sacrificed, and the blood was collected from the orbital cavities of the mice. […] Cells obtained after the centrifugation were re-suspended in a 1 ml HBSS buffer solution, and the total cell number was counted with a hemocytometer.
The bronochial alveolar lavage fluid collected in Experiment E was centrifuged at 4° C. and with a revolution speed of 400 g for 10 minutes. After the supernatant was collected, the expression of eotaxin, IL-4, IL-5, and IFN-γ was analyzed with an ELISA kit (R&D Systems, Inc., USA). […]

Oc1ccc2c(c1)OC[C@]1(O)Cc3cc(O)c(O)cc3[C@H]21 [brazilin]
expression of mRNA of IL-5 (IL-5 mRNA; EL-4 cells, result in words): inhibited | Expression level of IL-5 mRNA (IL-5 mRNA; brazilin 0.3 μM): 1397 ± 172.2 | Expression level of IL-5 mRNA (IL-5 mRNA; brazilin 1 μM): 1225 ± 47.23 | Expression level of IL-5 mRNA (IL-5 mRNA; brazilin 3 μM): 1009 ± 77.66 | Expression level of IL-5 mRNA (IL-5 mRNA; brazilin 10 μM): 926.2 ± 40.70 | Expression level of IL-5 mRNA (IL-5 mRNA; brazilin 30 μM): 594.8 ± 252.9 | expression of mRNA of transcription factor c-maf (c-maf mRNA; EL-4 cells, result in words): inhibited | Expression level of c-maf mRNA (c-maf mRNA; brazilin 0.3 μM): 3.388 ± 0.2410 | Expression level of c-maf mRNA (c-maf mRNA; brazilin 1 μM): 3.318 ± 0.1177 | Expression level of c-maf mRNA (c-maf mRNA; brazilin 3 μM): 2.846 ± 0.2632 | Expression level of c-maf mRNA (c-maf mRNA; brazilin 10 μM): 1.826 ± 0.6278 | Expression level of c-maf mRNA (c-maf mRNA; brazilin 30 μM): 1.302 ± 0.1868 | Number of eosinophils (×10^4) ([1]; High dose (430 μg/mice)): 10.52 ± 4.543 ×10^4 | Number of lymphocytes (×10^4) ([1]; High dose (430 μg/mice)): 0.8106 ± 0.3015 ×10^4 | Number of macrophages (×10^4) ([1]; High dose (430 μg/mice)): 34.25 ± 4.970 ×10^4 | Number of neutrophils (×10^4) ([1]; High dose (430 μg/mice)): 0.2178 ± 0.1799 ×10^4 | Number of eosinophils (×10^4) ([1]; Low dose (43 μg/mice)): 21.39 ± 1.491 ×10^4 | Number of lymphocytes (×10^4) ([1]; Low dose (43 μg/mice)): 0.7421 ± 0.2902 ×10^4 | Number of macrophages (×10^4) ([1]; Low dose (43 μg/mice)): 41.67 ± 6.885 ×10^4 | Number of neutrophils (×10^4) ([1]; Low dose (43 μg/mice)): 0.6476 ± 0.2759 ×10^4 | number of eosinophils in the lungs of the mice ([1]; result in words): decreased | production of β-chemokine, eotaxin (eotaxin; BALB/c mice, result in words): inhibited | Eotaxin concentration (pico-gram/ml) (eotaxin; High dose (430 μg/mice)): 12.61 ± 1.334 pico-gram/ml | Eotaxin concentration (pico-gram/ml) (eotaxin; Low dose (43 μg/mice)): 18.64 ± 3.784 pico-gram/ml
